A short description of series [1]: Toxicity data (LD50) of tetracyclines and Tri-tetracyclines in mice. The settings on record: mouse, in vivo, oral.
Series [2] can be described thus: Chloroform/water distribution quotient. Particulars: pH=7.4. In kind it is physicochemical. The source says: The solution is filled into ampoules in nitrogen atmosphere.
Series [3] relates to tetracycline-resistant Proteus strains. Particulars: cited from earlier work.
The conditions of series [4]: background statement; cited from earlier work.
For series [5] the following is noted: cited from earlier work.
For series [6] the following is noted: cited from earlier work. This is another data set of the same source.
The conditions of series [7]: per os; cited from earlier work.
The conditions of series [8]: cited from earlier work. This is another data set of the same source.

The structures appear in SMILES notation.

On to `CN(C)[C@@H]1C(=O)C(C(N)=O)=C(O)[C@@]2(O)C(=O)C3=C(O)c4c(O)cccc4[C@@](C)(O)[C@H]3[C@H](O)[C@@H]12` [OTC, 5-hydroxytetracycline], for which the LD50 in series [1] came out at 2500 mg/kg. For the same compound, the “chloroform/water distribution quotient K” value in series [2] came to 0.008.

For `CC(=O)C1=C(O)C2(O)C(=O)c3c(c(C)c4ccc(C)c(O)c4c3O)CC2C(N)C1=O` (stereo not drawn) [chelocardin, 2-decarboxamido-2-acetyl-4-dedimethylamino-4-epiamino-9-methyl-5a,6-anhydrotetracyline], in series [3], the “effect against tetracycline-resistant Proteus” value was “effective”. Further, in series [4], the water solubility result is “lower than that of other tetracyclines”. In series [5], the lipid solubility entry was “moderately lipid soluble”. Moreover, the absorption result in series [6] (peroral) was “low absorption value”.

Turning to `C[C@H]1c2cccc(O)c2C(O)=C2C(=O)[C@]3(O)C(O)=C(C(N)=O)C(=O)[C@@H](N(C)C)[C@@H]3[C@@H](O)[C@@H]21` [doxycycline, 6-deoxy-5-hydroxytetracycline], in series [7], the gastrointestinal disorders result is on record as “gastrointestinal disorders can be observed”. Moreover, the excretion entry in series [6] (in vivo) is recorded as “with faeces as well”.

Take `NC(CO)(CO)CO` [tris(hydroxymethyl)aminomethane]: the pK in series [8] was 8.33.

The values above are taken from US4418060A, “Therapeutically active complexes of tetracyclines” (priority 1971, dated 1983).
